Assay results published in patent US20090131370A1, “Novel Nucleoside Derivatives” (METABASIS THERAPEUTICS , INC., priority 2004, published 2009).
Like-named read-outs stand apart in the source and are kept apart here.

Columns and labels:
[1] = Conversion of Compound 31.5 to 2′-β-methyladenosine in monkey liver S9; assay type: in vitro ADME; details: Monkey liver S9, 37° C., pH 7.4
Protocol: (§1) The rate of Compound 31.5 conversion to nucleoside was evaluated in liver S9 obtained from rat, dog, monkey and human liver. […] The homogenate was centrifuged in a Sorvall RC-5B Refrigerated Superspeed Centrifuge (30 minutes at 10,000 g) and the resulting supernatant used in the assays. The other S9 preparations were purchased from 1n Vitro Technologies. […] Aliquots of the reaction mixture were quenched with 2 volumes of ice-cold acetonitrile/0.2% formic acid (pH 3.0) at appropriate time intervals, briefly vortexed, and then immediately placed on dry ice. After all time points were taken, the samples were centrifuged in an Eppendorf microfuge (14,000 rpm, 10 minutes). The supernatant fractions were analyzed for disappearance of prodrug (and appearance of 2′-β-methyladenosine) by reverse phase HPLC on an Agilent Zorbax SB-Aq column (511m, 4.6×150 mm). The loading mobile phase buffer (Buffer A) consisted of a 9:1 ratio (v/v) of 20 mM potassium phosphate, pH 6.2 and acetonitrile. […] The elution of reaction components was monitored at […]. Quantitation was by comparison to authentic standards prepared in liver S9 and processed in an identical fashion to the unknown samples. The rate of prodrug conversion was calculated from the linear portion of the reaction curves and expressed as nmoles converted per mg of S9 protein per minute of reaction time.

[2] = Oral bioavailability in the rat based on liver nucleotide concentrations
Protocol: At pre-specified times of 20 min, 1, 3, 5, 8, 16, and 24 hrs post dose, liver samples (˜1 g) were collected by freeze-clamping and homogenized in 3 volumes of ice-cold 60% acetonitrile. Following centrifugation to clarify the homogenate, aliquots of the supernatants (100 μL) were evaporated to dryness on a Savant Speed-Vac Plus (1 hr, room temperature). The resulting dried residue was reconstituted with 100 μL of mobile phase and then analyzed for nucleotides by an LC-MS/MS method as described below.
The reconstituted extracts in mobile phase A (20 mM N,N-dimethylhexylamine and 10 mM propionic acid in 20% methanol) were analyzed by LC-MS/MS (Applied Biosystems, API 4000) equipped with an Agilent 1100 binary pump and a LEAP injector. […] Where possible, the quantitative analysis of liver NMP, NDP, and NTP were calculated based on a calibration curve generated from their respective standards (0.01-30 μM).
The area under the curve (AUC) to the last measurable time point were calculated by trapezoidal summation of the liver concentration-time profile of total nucleotides and NTP. The OBAV was determined by dividing the dose-normalized AUC following oral administration by the AUC following IV dosing.

[3] = Susceptibility to non-productive metabolism in vivo: 2′-β-C-methylinosine AUC in rat plasma and tissues; design: species or system male Sprague-Dawley rats; details: male, Sprague-Dawley
Protocol: The susceptibility of 2′-β-C-methyladenosine, and its 2′,3′-carbonate prodrugs to non-productive metabolism was evaluated in vitro and in vivo. […] Also at the pre-specified times, blood (heparinized) was collected from the vena cava and centrifuged briefly to obtain plasma. […] The supernatant was then analysis for deaminated products and other metabolites by LC-UV as described above.

[4] = Conversion of Compound 31.5 to 2′-β-methyladenosine in human liver S9; assay type: in vitro ADME; details: Human liver S9, 37° C., pH 7.4
Protocol: as §1

[5] = rat, in vivo
Protocol: Analog and Its 2′,3′-Carbonate Prodrugs The liver selectivity of an antiviral nucleoside, 2′-B-C-methyladenosine, and its 2′,3′-carbonate prodrugs was evaluated in the rat by comparing liver nucleotide concentrations to levels of a major metabolite in the plasma or to concentrations of extrahepatic nucleotides. An elevated liver selectivity index is an indication of improved liver targeting of the antiviral agent and reduced exposure to other organs that may be potential targets of toxicity.
At pre-specified times of 20 min, 1, 3, 5, 8, 16, and 24 hrs post dose, liver, heart, and thigh muscle samples (˜1 g) were harvested by freeze-clamping and homogenized in 3 volumes of ice-cold acetonitrile. Following centrifugation to clarify the homogenate, aliquots of the tissue extracts were evaporated to dryness on a Savant Speed-Vac Plus (1 hr, room temperature). The resulting dried residue was reconstituted with 100 μL of mobile phase and then analyzed for nucleotides by an LC-MS/MS method as described in Example I. In addition to solid tissue, blood was collected in heparin tubes at the pre-specified times and centrifuged to obtain plasma. The plasma samples (100 μL) were extracted with 1.5 volumes of methanol and centrifuged for 20 min at top speed on a microfuge. Plasma concentrations of a major metabolite of 2′-B-C-methyladenosine, i.e., 2′-B-C-methylinosine, were determined by LC-UV as described in Example E.
The area under the curve (AUC) to the last measurable time point was calculated by trapezoidal summation of the liver, heart, and muscle concentration-time profile of total nucleotides and NTP and of the plasma concentration-time profile of the major metabolite 2′-B-C-methylinosine. The liver selectivity index was determined by two methods: (1) dividing liver NTP AUC by heart nucleotide AUC and (2) dividing liver NTP AUC by plasma 2′-3-C-methylinosine AUC.

HCV = experiment: Antiviral activity in HCV-infected human liver slice assay; assay type: cell-based, hepatitis C virus; details: HCV RNA in culture media
Protocol: The effect of various compounds on HCV replication in human liver tissue was evaluated as described below.
Liver from a brain-dead HCV antibody-positive human patient was perfused with ice-cold Viaspan (Dupont Pharmaceutical) preservation solution and received on ice in Viaspan.
Precision-cut liver slices of ˜200-250 μm thickness and […] diameter were prepared and cultured in Waymouth's cell culture medium (Gibco, Inc.) that was supplemented with 10% fetal bovine serum and 10 mL/L Fungi-Bact at 37° C., and gassed with carbogen (95% O2, 5% CO2) at 0.75 liters/min. Tissue slices were maintained in culture for 72 h. Cell culture medium containing test compound in solution was changed on a daily basis.
At appropriate times of liver slice incubation, liver slices and medium were collected for analysis of HCV RNA (tissue and medium) and nucleotide levels (NTP). All collected media and tissue slices were maintained in liquid N2 until analysis.
Medium and tissue samples were analyzed for HCV RNA levels according to published procedures (Bonacini et. al., 1999) which utilize an automated, multicycle, polymerase chain reaction (PCR)-based technique. This assay has a lower limit of detection for HCV RNA of 100 viral copies/ml. Frozen liver slices were disrupted by using a combination of ultrasound probe sonication, Branson Sonifier 450 (Branson Ultrasonics, Danbury, Conn.) and homogenization using a Dounce conical pestle in 200 μls of 10% (v/v) perchloric acid (PCA). After a 5 min centrifugation at 2,500×g, the supernatants were neutralized using 3 M KOH/3 M KHCO3 and mixed thoroughly. The neutralized samples were centrifuged at 2,500 g for 5 min and NTP levels were determined by ion exchange phase HPLC (Hewlett Packard 1050) using a Whatman Partisil 5 SAX (5 μm, 4.6×250 mm) column. Samples (50 μL) were injected onto the column in 70% 10 mM ammonium phosphate buffer and 30% 1 M ammonium phosphate buffer, both at pH 3.5 and containing 6% ethanol. Nucleoside triphosphates were eluted from the column using a linear gradient to 80% 1 M ammonium phosphate pH 3.5/6% ethanol buffer, at a flow rate of 1.25 mL/min and detected by UV absorbance (254 nm).

[6] = Susceptibility to non-productive metabolism (deamination) in vitro in rat whole blood or plasma; assay type: in vitro ADME
Protocol: The susceptibility of 2′-β-C-methyladenosine, and its 2′,3′-carbonate prodrugs to non-productive metabolism was evaluated in vitro and in vivo. […] Aliquots of the blood and plasma samples were removed periodically and extracted with perchloric acid and methanol, respectively, and then centrifuged. The acidic supernatants were neutralized with potassium carbonate and recentrifuged. […] Analysis (50 μL) was performed on an Agilent Zorbax SB-Aq column (4.6×150 mm) eluted with a gradient consisting of a mixture of Buffer A (20 mM potassium phosphate pH 6.2) and Buffer B (acetonitrile) (0-10 min, 0-10%; 10-20 min, 10-80%, 20-21 min, 80-0%; 21-30 min, 0-0%) and UV absorbance monitoring at 265 nm. The flow rate was 1.5 mL/min and the column temperature was set at 40° C. Concentrations of metabolite were determined from calibration curves prepared by spiking known amounts of standards to plasma and processing as before.

[7] = Conversion of Compound 31.5 to 2′-β-methyladenosine in dog (Beagle) liver S9; assay type: in vitro ADME; details: Beagle liver S9, 37° C., pH 7.4
Protocol: as §1

[8] = Conversion of Compound 31.5 to 2′-β-methyladenosine in rat liver S9; assay type: in vitro ADME; details: Rat liver S9, 37° C., pH 7.4
Protocol: as §1

[9] = Kinetics of conversion of HepDirect-carbonate prodrugs to nucleoside monophosphates by human liver microsomes; assay type: in vitro ADME; details: activation to NMP, Lineweaver-Burke plot
Protocol: The kinetics of activation of prodrug analogues to NMP were evaluated in the microsomal fraction of human liver.
Human liver microsomes were purchased from In Vitro Technologies. The study was performed at 2 mg/mL human liver microsomes, 100 mM KH2PO4, 10 mM glutathione, 0-250 μM compound, and 2 mM NADPH for 0-7.5 min. in an Eppendorf Thermomixer 5436 (37° C., 850 rpm). The reactions were initiated by addition of NADPH following a 2-min. preincubation. Reactions were quenched with 60% methanol at 0, 2.5, 5, and 7.5 min. The resulting extracts were clarified by centrifugation at 14,000 rpm in an Eppendorf microfuge (20 min.). The supernatants (200 μL) were evaporated under vacuum and, heat to dryness. The dried residue was reconstituted with 200 μL of water and the mixture was centrifuged for 10 min at 14,000 rpm. […] NMP was detected by using MS/MS mode (M^−/78.8) and quantified based on comparison to a standard of lamivudine monophosphate. Kinetic parameters were determined from a Lineweaver-Burke plot of the data with use of SigmaPlot 9.0 software.

Compound	ORAL BIOAVAILABILITY ([2]; male, Sprague-Dawley, in vivo) [%]	deaminated product 2′-B-C-methylinosine in plasma, liver, heart, and muscle tissue [3]	Heart Nucleotides AUC ([5]; male, Sprague-Dawley)	Liver NTP AUC ([5]; male, Sprague-Dawley)	Plasma 2′-β-C-Methylinosine AUC ([5]; male, Sprague-Dawley)	% decrease in viral RNA relative to untreated liver slices (HCV; 0.25 μM) [%]	% decrease in viral RNA relative to untreated liver slices (HCV; 2.5 μM) [%]	% decrease in viral RNA relative to untreated liver slices (HCV; 25 μM) [%]	% decrease in viral RNA relative to untreated liver slices (HCV; 100 μM) [%]	deaminated product (2′-β-C-methylinosine) after incubation in rat whole blood in vitro ([6]; rat)	Km [9] [µM]	Vmax [9] [nmol/min/mg]	other results
C[C@@]1(O)[C@H](O)[C@@H](COP2(=O)OCC[C@H](c3cccc(Cl)c3)O2)O[C@H]1n1ccc2c(N)ncnc21 (stereo partly drawn) [Example 16.1, 4-Amino-7-(cis-5′-O-[4-(3-chlorophenyl)-2-oxo-1,3,2-dioxaphosphorinan-2-yl]-2′-C-methyl-beta-D-ribofuranosyl)-7H-pyrrolo[2,3-d]pyrimidine]													melting point: 138 to 141 °C
C[C@@]12OC(=O)O[C@@H]1[C@@H](CO)O[C@H]2n1cnc2c(N)ncnc21 [Compound 31.5, 2′,3′-Carbonyl-2′-C-beta-methyl-adenosine]	95	2′-B-C-methylinosine was detected in plasma, liver, heart, and muscle tissue	23	2522	25	0	93	85	75	2′-β-C-methylinosine was observed			Specific activity (rate of prodrug disappearance) [1]: 0.024 ± 0.003 nmol/min/mg; Specific activity (rate of prodrug disappearance) [4]: 0.03 ± 0.005 nmol/min/mg; Specific activity (rate of prodrug disappearance) [7]: 2.0 ± 0.3 nmol/min/mg; Specific activity (rate of prodrug disappearance) [8]: 0.28 ± 0.03 nmol/min/mg
2′-β-C-methyladenosine [reference compound]						0	83	94	92				ORAL BIOAVAILABILITY ([2]; dose-normalized liver nucleotide AUC oral / IV): < 5%; ORAL BIOAVAILABILITY ([2]; dose-normalized liver nucleotide AUC oral / IV, listed as 2′-β-C-Methyladenosine): 2%; Liver NTP AUC [5]: 15; Plasma 2′-β-C-Methylinosine AUC [5]: 11; Plasma concentrations of the main metabolite, 2′-B-C-methylinosine [5]: detectable; concentrations of nucleotides of 2′-methyladenosine in heart and muscle tissue [5]: measurable in heart and muscle tissue; deaminated product (2′-β-C-methylinosine) after incubation in rat whole blood in vitro ([6]; rat whole blood, 37° C.): 2′-β-C-methylinosine was observed
CC1(C)C[C@@H](c2cccc(F)c2F)OP(=O)(OC[C@H]2O[C@@H](n3cnc4c(N)ncnc43)[C@]3(C)OC(=O)O[C@H]23)O1 (stereo partly drawn) [Compound 30.10, cis-5′-O-[6-(2,3-Difluorophenyl)-4,4-dimethyl-2-oxo-1,3,2-dioxaphosphorinan-2-y]-2′,3′-carbonyl-2′-C-methyl-adenosine]	21	no or only trace levels of the deaminated product were measurable	< 2.8		< 7.1					no deaminated products were detected	44.5	0.12	
C[C@@]12OC(=O)O[C@@H]1[C@@H](COP1(=O)OCC[C@@H](c3ccncc3)O1)O[C@H]2n1cnc2c(N)ncnc21 (stereo partly shown) [Compound 30.1]		no or only trace levels of the deaminated product were measurable	2.6	841	< 7.1					no deaminated products were detected	64	0.36	
